How the values were obtained:
Experiment in all cases: drug sensitivity score (DSS3, normalised partial AUC of % inhibition dose-response) (DSS (score)); higher = more sensitive (stronger inhibition of viability); extreme values may be limits of the assay
Details in all cases: 72 h; library: FO5A; assay format: 2D, 384-well, CellTiter-Glo
FMOC04 = test system: FMOC04 (patient-derived high-grade serous ovarian cancer cells)
How it was run: (§1)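 Early-passage (under 10) patient-derived ovarian cancer cells were dispensed onto 384-well flat clear-bottom plates pre-plated with compounds at five concentrations spanning a 10,000-fold range, then incubated 72 h at 37 °C, 5% CO2. Viability was read with CellTiter-Glo, and the data were processed in Breeze. The drug sensitivity score is a partial area under the percent-inhibition dose-response curve divided by the log of the upper asymptote, with higher values meaning greater sensitivity.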

FMOC11 = test system: FMOC11 (patient-derived high-grade serous ovarian cancer cells)
How it was run: as §1

FMOC28 = test system: FMOC28 (patient-derived low-grade serous ovarian cancer cells)
How it was run: as §1

FMOC02_2 = test system: FMOC02_2 (patient-derived low-grade serous ovarian cancer cells)
How it was run: as §1

FMOC09 = test system: FMOC09 (patient-derived high-grade serous ovarian cancer cells)
How it was run: as §1

FMOC17 = test system: FMOC17 (patient-derived low-grade serous ovarian cancer cells)
How it was run: as §1

FMOC02_3 = test system: FMOC02_3 (patient-derived low-grade serous ovarian cancer cells)
How it was run: as §1

FMOC14 = test system: FMOC14 (patient-derived high-grade serous ovarian cancer cells)
How it was run: as §1

FMOC03 = test system: FMOC03 (patient-derived mucinous ovarian cancer cells)
How it was run: as §1

FMOC22 = test system: FMOC22 (patient-derived mucinous ovarian cancer cells)
How it was run: as §1

FMOC02_1 = test system: FMOC02_1 (patient-derived low-grade serous ovarian cancer cells)
How it was run: as §1

FMOC27 = test system: FMOC27 (patient-derived low-grade serous ovarian cancer cells)
How it was run: as §1

FMOC06 = test system: FMOC06 (patient-derived mucinous ovarian cancer cells)
How it was run: as §1

FMOC24 = test system: FMOC24 (patient-derived high-grade serous ovarian cancer cells)
How it was run: as §1

FMOC25_2 = test system: FMOC25_2 (patient-derived low-grade serous ovarian cancer cells)
How it was run: as §1

SMILES | drug sensitivity score (FMOC04) | drug sensitivity score (FMOC11) | drug sensitivity score (FMOC28) | drug sensitivity score (FMOC02_2) | drug sensitivity score (FMOC09) | drug sensitivity score (FMOC17) | drug sensitivity score (FMOC02_3) | drug sensitivity score (FMOC14) | drug sensitivity score (FMOC03) | drug sensitivity score (FMOC22) | drug sensitivity score (FMOC02_1) | drug sensitivity score (FMOC27) | drug sensitivity score (FMOC06) | drug sensitivity score (FMOC24) | drug sensitivity score (FMOC25_2)
Cc1ccc(=O)n(-c2ccccc2)c1 [Pirfenidone] | 0 | 0.1 | 0 | 0 | 0 | 0.6 | 0 | 0 | 0 | 0 | 0 | 0 | 0 | 0 | 0
COC(=O)c1ccc([C@H]2c3[nH]c4ccccc4c3C[C@H](C(=O)OC)N2C(=O)CCl)cc1 [RSL3] | 0 | 0 | 0 | 0 | 0 | 0 | 0 | 0 | 0 | 0 | 0 | 0 | 0 | 0 | 0
Cc1cn(-c2cc(NC(=O)c3ccc(C)c(Nc4nccc(-c5cnccn5)n4)c3)cc(C(F)(F)F)c2)cn1 [Radotinib] | 0 | 0 | 1.6 | 0 | 0 | 0 | 0 | 0 | 0 | 0 | 0 | 0 | 2.4 | 1 | 0.2
CCOC(=O)C1=CCCC[C@H]1S(=O)(=O)Nc1ccc(F)cc1Cl [Resatorvid] | 0 | 0 | 0 | 0 | 0 | 0 | 0 | 0 | 0 | 0 | 0 | 0 | 0.1 | 0 | 0
CCOCc1nc2c(N)nc3ccccc3c2n1CC(C)(C)O [Resiquimod] | 0 | 0 | 0 | 0 | 0.2 | 0 | 0 | 0 | 0 | 0 | 0 | 0 | 0.6 | 1.5 | 0
C[C@H]1CNCCCN1S(=O)(=O)c1cccc2cncc(F)c12 [Ripasudil] | 0 | 0 | 0 | 0 | 0 | 0 | 0 | 0 | 0 | 0 | 0 | 0 | 0 | 0 | 0
Cc1nc(C(=O)NCC(=O)O)c(O)c2ccc(Oc3ccccc3)cc12 [Roxadustat] | 0 | 0 | 0 | 0 | 0 | 0 | 0 | 0 | 0 | 0 | 0 | 0.2 | 0 | 3.3 | 0
CC1=C2C[C@H]3[C@@H](CC[C@@H]4C[C@H](NS(C)(=O)=O)CC[C@@]43C)[C@@H]2CC[C@@]2(C1)O[C@@H]1C[C@H](C)CN[C@H]1[C@H]2C [Saridegib] | 0 | 0 | 2.2 | 2.2 | 0 | 4.1 | 0 | 0 | 0 | 0 | 0 | 0 | 0 | 0.3 | 0
Cc1cc(F)c(C(=O)Nc2cccc(-c3nncn3C(C)C)n2)cc1-n1cnc(C2CC2)c1 [Selonsertib] | 0 | 0 | 0 | 0 | 0 | 1.5 | 0 | 0 | 0 | 0 | 0 | 0 | 0 | 0.6 | 0
CN1CCN(C(=O)c2ccc3cc(CCNc4ncnc5ccc(C#N)cc45)ccc3c2)CC1 [Senexin B] | 0 | 0 | 0 | 1.3 | 0 | 0.6 | 2.9 | 0 | 1.5 | 0 | 0.6 | 0 | 1 | 0.2 | 1.2
COCC[n+]1c2c(n(Cc3cnccn3)c1C)C(=O)c1ccccc1C2=O [Sepantronium bromide] | 38.1 | 37.8 | 43 | 30.6 | 43.7 | 36.9 | 36.1 | 42.6 | 39 | 33.2 | 38.4 | 30.9 | 32.9 | 33.5 | 41.4
COCCNCc1ccc(-c2cc3nccc(Oc4ccc(NC(=O)C5(C(=O)Nc6ccc(F)cc6)CC5)cc4F)c3s2)nc1 [Sitravatinib] | 0.45 | 1.1 | 1.5 | 1.1 | 1.4 | 2.1 | 2.5 | 1.2 | 0.3 | 0.4 | 2.1 | 2.5 | 1.6 | 5.8 | 2.2
CC(C)Oc1ccc(-c2nn([C@@H](C)c3oc4ccc(F)cc4c(=O)c3-c3cccc(F)c3)c3ncnc(N)c23)cc1F [TGR-1202] | 0.05 | 0 | 4.6 | 1.1 | 0 | 3.5 | 2 | 1.7 | 0 | 0 | 1.6 | 0.1 | 0.3 | 0.2 | 0.1

Source: the supplement of paper PMC9938120
